From BindingDB's records for patent US20230357253 (The Scripps Research Institute, 2023)

Biological target: Stimulator of interferon genes protein (Homo sapiens, UniProt Q86WV6)
Test: WT STING Binding Assay
Procedure: Upon proximity of the two dyes, the excitation of the donor by the flash lamp on the PHERAstar FSX plate reader triggers a Fluorescence Resonance Energy Transfer (FRET) towards the acceptor, which in turn fluoresces at 665 nm. To assess the ability of the synthetic small molecule STING ligands to bind to human STING, a competitive assay format was applied. A 10-point titration of each of the synthetic ligands in 5 uL were transferred into a 384 well plate, followed by 20 uL of assay buffer containing the 6×His-tagged human STING protein and labeled 2′3′cGAMP ligand and incubated for three hours at room temperature. The raw values obtained from the PHERAstar were used to calculate the reported IC50 values (the signal is inversely proportional to the binding of the synthetic ligand) through curve fitting in Genedata. The percent inhibition was calculated based upon the maximal amount of binding by synthetic compound versus the maximum binding of unlabeled 2′3′ cGAMP which was used as a control in each assay.

Sequence of Stimulator of interferon genes protein (Q86WV6 whole entry): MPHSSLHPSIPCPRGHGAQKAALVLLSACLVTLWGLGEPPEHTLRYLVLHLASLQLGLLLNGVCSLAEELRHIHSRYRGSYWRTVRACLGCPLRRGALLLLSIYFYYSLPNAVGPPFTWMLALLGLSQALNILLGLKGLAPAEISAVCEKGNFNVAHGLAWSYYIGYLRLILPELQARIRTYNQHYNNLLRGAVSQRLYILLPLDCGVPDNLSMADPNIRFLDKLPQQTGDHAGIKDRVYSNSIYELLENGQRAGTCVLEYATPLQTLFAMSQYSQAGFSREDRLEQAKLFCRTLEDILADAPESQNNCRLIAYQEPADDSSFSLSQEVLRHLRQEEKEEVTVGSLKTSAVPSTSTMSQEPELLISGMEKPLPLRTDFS

Structure (SMILES) | IC50 [nM]
O=C(Nc1cc(OCCCCOc2ccc(C(=O)O)c(NC(=O)c3ccc4nnnn4n3)c2)ccc1C(=O)O)c1ccc2nnnn2n1 [US20230357253, Compound 32] | > 1000
O=C(Nc1cc(CCc2ccc(C(=O)O)c(NC(=O)c3ccc4nnnn4n3)c2)ccc1C(=O)O)c1ccc2nnnn2n1 [US20230357253, Compound 29] | > 1000
O=C(Nc1cc(OCCCCOc2ccc(NC(=O)c3ccc4nnnn4n3)c(C(=O)O)c2)ccc1C(=O)O)c1ccc2nnnn2n1 [US20230357253, Compound 27] | > 1000
O=C(Nc1cc(F)c(CCCc2cc(NC(=O)c3ccc4nnnn4n3)c(C(=O)O)cc2F)cc1C(=O)O)c1ccc(-n2ccnc2)nn1 [US20230357253, Compound 94] | < 10
O=C(Nc1cc(OCCCCCOc2ccc(C(=O)O)c(NC(=O)c3ccc4nnnn4n3)c2)ccc1C(=O)O)c1ccc2nnnn2n1 [US20230357253, Compound 30] | > 1000
O=C(Nc1cc(CCCOc2cc(NC(=O)c3ccc(-n4ccnc4)nn3)c(C(=O)O)cc2F)c(F)cc1C(=O)O)c1ccc(-n2ccnc2)nn1 [US20230357253, Compound 125] | < 10
O=C(Nc1cc(CCc2cc(C(=O)O)c(NC(=O)c3ccc(-n4ccnc4)nn3)cc2F)c(F)cc1C(=O)O)c1ccc(-n2ccnc2)nn1 [US20230357253, Compound 180] | > 1000
CC(CCOc1cc(NC(=O)c2ccc(-n3ccnc3)nn2)c(C(=O)O)cc1F)Oc1cc(NC(=O)c2ccc(-n3ccnc3)nn2)c(C(=O)O)cc1F (configuration not stated) [US20230357253, Compound 5] | < 10
O=C(Nc1cc(CCSc2cc(NC(=O)c3ccc(-n4ccnc4)nn3)c(C(=O)O)cc2F)c(F)cc1C(=O)O)c1ccc(-n2ccnc2)nn1 [US20230357253, Compound 195] | < 10
O=C(Nc1cc(CCCc2ccc(C(=O)O)c(NC(=O)c3ccc4nnnn4n3)c2)ccc1C(=O)O)c1ccc2nnnn2n1 [US20230357253, Compound 14] | > 1000
O=C(Nc1cc(OCCCCOc2cc(NC(=O)c3ccc(-n4ccnc4)nn3)c(C(=O)O)cc2F)ccc1C(=O)O)c1ccc(-n2ccnc2)nn1 [US20230357253, Compound 19] | < 10
O=C(Nc1cc(OCc2cc(C(=O)O)c(NC(=O)c3ccc(-n4ccnc4)nn3)cc2F)c(F)cc1C(=O)O)c1ccc(-n2ccnc2)nn1 [US20230357253, Compound 190] | > 1000
COc1cc(C(=O)O)c(NC(=O)c2ccc(-n3ccnc3)nn2)cc1OCCc1cc(C(=O)O)c(NC(=O)c2ccc3nnnn3n2)cc1Cl [US20230357253, Compound 6] | < 10
O=C(Nc1cc(CCOc2cc(C(=O)O)c(NC(=O)c3ccc4nnnn4n3)cc2F)c(F)cc1C(=O)O)c1ccc(-n2ccnc2)nn1 [US20230357253, Compound 145] | 10 to 100
O=C(Nc1cc(CCOc2cc(C(=O)O)c(NC(=O)c3ccc(-n4ccnc4)nn3)cc2F)c(F)cc1C(=O)O)c1ccc(-n2ccnc2)nn1 [US20230357253, Compound 141] | < 10
O=C(Nc1ccc(OCOc2ccc(NC(=O)c3ccc(-n4ccnc4)nn3)c(C(=O)O)c2)cc1C(=O)O)c1ccc(-n2ccnc2)nn1 [US20230357253, Compound 138] | > 1000
N#Cc1cc(C(=O)O)c(NC(=O)c2ccc(-n3ccnc3)nn2)cc1CCCc1cc(NC(=O)c2ccc(-n3ccnc3)nn2)c(C(=O)O)cc1F [US20230357253, Compound 182] | < 10
O=C(Nc1cc(CCCc2cc(C(=O)O)c(NC(=O)c3ccc(-n4ccnc4)nn3)cc2F)ccc1C(=O)O)c1ccc(-n2ccnc2)nn1 [US20230357253, Compound 78] | < 10
O=C(Nc1cc(OCCc2cc(C(=O)O)c(NC(=O)c3ccc(-n4ccnc4)nn3)cc2Cl)c(F)cc1C(=O)O)c1ccc(-n2ccnc2)nn1 [US20230357253, Compound 166] | < 10

Structure (SMILES) | IC50 [nM]
COc1cc(C(=O)O)c(NC(=O)c2ccc(-n3ccnc3)nn2)cc1OCCCCOc1cc(NC(=O)c2ccc(-n3ccnc3)nn2)c(C(=O)O)cc1OC [US20230357253, Compound 21] | > 1000
O=C(Nc1cc(CCOc2cc(NC(=O)c3ccc(-n4ccnc4)nn3)c(C(=O)O)cc2F)c(F)cc1C(=O)O)c1ccc(-c2cn[nH]c2)nn1 [US20230357253, Compound 205] | < 10
O=C(Nc1c(C(=O)O)cc(F)c(OCCCCOc2c(F)cc(C(=O)O)c(NC(=O)c3ccc(-n4ccnc4)nn3)c2F)c1F)c1ccc(O)nn1 [US20230357253, Compound 39] | > 1000
O=C(Nc1cc(CCCc2cc(NC(=O)c3ccc(-n4ccnc4)nn3)c(C(=O)O)cc2F)ccc1C(=O)O)c1ccc(-n2ccnc2)nn1 [US20230357253, Compound 68] | < 10
O=C(Nc1cc(CSCc2cc(NC(=O)c3ccc(-n4ccnc4)nn3)c(C(=O)O)cc2F)c(F)cc1C(=O)O)c1ccc(-n2ccnc2)nn1 [US20230357253, Compound 132] | < 10
O=C(Nc1cc(CCCc2ccc(-c3nn[nH]n3)c(NC(=O)c3ccc(-n4ccnc4)nn3)c2)c(F)cc1C(=O)O)c1ccc(-n2ccnc2)nn1 [US20230357253, Compound 148] | > 1000
Cn1nccc1-c1ccc(C(=O)Nc2cc(CCCc3cc(NC(=O)c4ccc(-n5ccnc5)nn4)c(C(=O)O)cc3F)c(F)cc2C(=O)O)nn1 [US20230357253, Compound 207] | > 1000
O=C(Nc1cc(OCCCCOc2cnc(C(=O)O)c(NC(=O)c3ccc(-n4ccnc4)nn3)c2)cnc1C(=O)O)c1ccc(-n2ccnc2)nn1 [US20230357253, Compound 45] | > 1000
COC(=O)c1ccc(OCCCCOc2ccc(C(=O)O)c(NC(=O)c3ccc(-n4ccnc4)nn3)c2)cc1NC(=O)c1ccc2nnnn2n1 [US20230357253, Compound 37] | > 1000
Cn1nccc1-c1ccc(C(=O)Nc2cc(OCCCOc3cc(NC(=O)c4ccc(-c5ccnn5C)nn4)c(C(=O)O)cc3F)c(F)cc2C(=O)O)nn1 [US20230357253, Compound 206] | > 1000
O=C(Nc1cc(OCCc2cc(C(=O)O)c(NC(=O)c3ccc4nnnn4n3)cc2F)c(F)cc1C(=O)O)c1ccc(-n2ccnc2)nn1 [US20230357253, Compound 169] | < 10
O=C(O)Cc1cc(F)c(CCOc2cc(NC(=O)c3ccc(-n4ccnc4)nn3)c(C(=O)O)cc2F)cc1NC(=O)c1ccc(-n2ccnc2)nn1 [US20230357253, Compound 133] | > 1000
O=C(Nc1cc(CCCc2cc(NC(=O)c3ccc(-n4ccnc4)nn3)c(C(=O)O)cc2F)c(F)cc1C(=O)O)c1ccc(-n2ccnc2)nn1 [US20230357253, Compound 3] | < 10
O=C(Nc1cc(CCCCc2cc(C(=O)O)c(NC(=O)c3ccc(-n4ccnc4)nn3)cc2F)c(F)cc1C(=O)O)c1ccc(-n2ccnc2)nn1 [US20230357253, Compound 127] | < 10
COc1cc(C(=O)O)c(NC(=O)c2ccc(-n3ccnc3)nn2)cc1CCCc1cc(NC(=O)c2ccc(-n3ccnc3)nn2)c(C(=O)O)cc1F [US20230357253, Compound 59] | < 10
O=C(Nc1c(C(=O)O)cc(F)c(OCCCCOc2c(F)cc(C(=O)O)c(NC(=O)c3ccc(-n4ccnc4)nn3)c2F)c1F)c1ccc(-n2ccnc2)nn1 [US20230357253, Compound 38] | > 1000
O=C(Nc1cc(OCCCOc2ccc(NC(=O)c3ccc4nnnn4n3)c(C(=O)O)c2)ccc1C(=O)O)c1ccc2nnnn2n1 [US20230357253, Compound 25] | > 1000
O=C(Nc1cc(OCCCOc2cc(C(=O)O)c(NC(=O)c3ccc4nnnn4n3)cc2F)c(F)cc1C(=O)O)c1ccc2nnnn2n1 [US20230357253, Compound 33] | > 1000
